# According to PMC6733655 (Biochemical pharmacology, 2019):
# “And” between values parts separate entries of the source, which are not always exact repeats. Equal entries are not always repeated. “Also recorded” adds a separate entry of the source. Where two headings read alike, the source gives them in different places.
# Key:
# [1] = cited from earlier work
# [2] = tested on: nucleoside transporters (CNT1, CNT3, ENT1, ENT2); assay: Inhibition; assay type: in vivo, C57BL/6 mice
# [3] = tested on: ENT1 and ENT2; assay type: in vivo, C57BL/6 mice; details: 5 μM [14C]-gemcitabine, 90 min perfusion, 2 mM dilazep
# [4] = In situ single-pass jejunal perfusion of gemcitabine; assay type: in vivo, C57BL/6 mice; details: for Papp at 90 min, 100 μM: pH 6, effective permeability (Peff)
# [5] = as above; assay type: in vivo, BALB/c mice; details: female, BALB/c, mouse, other: in situ single-pass jejunal perfusion, pH 6
# [6] = mice, cited from earlier work
# [7] = 100 μM gemcitabine, female BALB/c mice, corrected for cytosine; cited from earlier work
# [8] = tested on: hCNT1; details: read-out: Km for gemcitabine transport; Xenopus laevis oocytes; cited from earlier work
# [9] = tested on: hCNT3; details: read-out: Km for gemcitabine transport; Xenopus laevis oocytes; cited from earlier work
# [10] = tested on: hENT2; details: read-out: Km for gemcitabine transport; Xenopus laevis oocytes; cited from earlier work
# [11] = tested on: hENT1; details: read-out: Km for gemcitabine transport; Xenopus laevis oocytes; cited from earlier work
# [12] = 5 μM gemcitabine co-perfused with 2 mM inhibitor, sodium-containing buffer
# [13] = from intrinsic clearance Vmax/Km, linear conditions
# [14] = jejunal flux, 0.5 μM to 2 mM, fit to two Michaelis-Menten terms
compound,measurement,setting,value
CC1=C(C(=O)O)N2C(=O)[C@@H](NC(=O)[C@H](N)c3ccc(O)cc3)[C@H]2SC1 [cefadroxil],in situ jejunal permeability (Peff),[1],0.6-0.8 × 10^−4 cm/s
NCC(=O)CCC(=O)O [5-aminolevulinic acid],in situ jejunal permeability (Peff),[1],0.00019 cm/s
COc1cc(C(=O)OCCCN2CCCN(CCCOC(=O)c3cc(OC)c(OC)c(OC)c3)CC2)cc(OC)c1OC [dilazep],reduction of jejunal permeability of gemcitabine,[2]; [12],about 50%
same,residual permeability of gemcitabine,[2]; [12],50.2%
same,effect on total gemcitabine radioactivity in intestinal (jejunal) tissue,[3],not altered; also recorded: no change
same,"total gemcitabine radioactivity in portal venous plasma, % control",[3],32.5%
"Nc1cc[nH]c(=O)n1 [Cytosine, cytosine]",cytosine in outlet samples,"[4]; perfusion of 100 μM gemcitabine, C57BL/6 and BALB/c mice",absent
"Nc1ccn([C@@H]2O[C@H](CO)[C@@H](O)C2(F)F)c(=O)n1 [gemcitabine, 2′,2′-difluoro-2′-deoxycytidine]",effective permeability (Peff),"[4]; 100 μM gemcitabine, jejunum, C57BL/6 mice, analyzed by UPLC",110 ×10⁻⁶ cm/s
same,"Papp at 90 min, 100 μM","[4]; both, C57BL/6, mouse, other: in situ single-pass jejunal perfusion, 100 μM [14C]-gemcitabine, jejunum, C57BL/6 mice, analyzed by radioactivity",105 ×10⁻⁶ cm/s
same,"Papp at 90 min, 100 μM","[4]; both, C57BL/6, mouse, other: in situ single-pass jejunal perfusion, 100 μM gemcitabine, jejunum, C57BL/6 mice, analyzed by UPLC",114 ×10⁻⁶ cm/s
same,"Papp at 90 min, 5 μM","[4]; both, C57BL/6, mouse, other: in situ single-pass jejunal perfusion, pH 6, in situ jejunal permeability, 5 μM gemcitabine, C57BL/6 mice",150 to 190 ×10⁻⁶ cm/s
same,predicted contribution of the high-affinity transport system to uptake,[4]; [13],72%
same,predicted contribution of the low-affinity transport system to uptake,[4]; [13],28%
same,"Vmax,1 (high-affinity, low-capacity transport system)",[4]; [14],3.6 pmol/cm^2/s and 3.6 ± 2.1 pmol/cm^2/s
same,"Vmax,2 (low-affinity, high-capacity transport system)",[4]; [14],35.9 pmol/cm^2/s and 35.9 ± 5.5 pmol/cm^2/s
same,Km,"[4]; read-out: Km,1 (high-affinity, low-capacity transport system), jejunal flux, 0.5 μM to 2 mM, fit to two Michaelis-Menten terms",27.4 ± 13.9 µM
same,Km,"[4]; read-out: Km,2 (low-affinity, high-capacity transport system), jejunal flux, 0.5 μM to 2 mM, fit to two Michaelis-Menten terms",700 ± 330 µM
same,"Papp at 90 min, 100 μM",[5],109 ± 13 ×10⁻⁶ cm/s
same,residual permeability of gemcitabine,[2]; 5 μM gemcitabine in sodium-free buffer (inhibits CNT1 and CNT3),31.7%
same,jejunal uptake mediated by nucleoside transporters,[2]; C57BL/6 mice,~ 95%
same,oral bioavailability,[6]; gemcitabine alone,10%
same,oral bioavailability,[6]; with tetrahydrouridine (cytidine deaminase inhibitor),40%
same,Peff,[7],2 ×10⁻⁶ cm/s
same,Km,[8],~25 µM
same,Km,[9],~60 µM
same,Km,[10],~750 µM
same,Km,[11],~160 µM
CC(C)[C@H](N)C(=O)OCCOCn1cnc2c(=O)[nH]c(N)nc21 [valacyclovir],in situ jejunal permeability (Peff),[1],9e-05 cm/s
Cc1cn([C@H]2C[C@H](O)[C@@H](CO)O2)c(=O)[nH]c1=O [thymidine],reduction of jejunal permeability of gemcitabine,[2]; [12],about 95%
same,residual permeability of gemcitabine,[2]; [12],4.6%
glycylsarcosine,in situ jejunal permeability (Peff),[1]; mouse,0.00017 cm/s
